Among the test systems are DU-145 prostate; SW-620 colon; A498 renal; COLO 205 colon; IGROV1 ovarian; MALME-3M melanoma; HOP-92 NSCLC; SK-MEL-28 melanoma.
What all share (assay): DTP human tumour cell line panel, 48 h

As usually defined, the TGI is the concentration at which net growth stops. High values mean lower sensitivity of the cells, low ones greater sensitivity of the cells. For orientation: GI50 means the concentration that inhibits growth by half.

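A five-concentration, 48-hour dose response in 96-well plates underlies each endpoint, interpolated linearly between surrounding concentrations. GI50 = concentration required for 50% inhibition of growth. TGI marks complete inhibition of growth.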

With `COc1ccc(/C=C/C(=O)C(C)(C)Br)cc1`, the TGI in the assay on DU-145 prostate stood at 37.2 µM; in the assay on SW-620 colon, 5.37 µM; in the assay with A498 renal it was 37.1 µM; with COLO 205 colon, 29.5 µM; with IGROV1 ovarian, 5.76 µM; with MALME-3M melanoma, 32 µM. The TGI in the assay on HOP-92 NSCLC turned out to be 27.9 µM.
Consider `CC12OC(C(=O)C13CCC3)C1C(=O)c3ccccc3C(=O)C12` (stereo not given), for which the GI50 in the assay on SK-MEL-28 melanoma was above 100 µM; in the assay with COLO 205 colon, above 100 µM; in the assay on IGROV1 ovarian it was above 100 µM; in the assay with MALME-3M melanoma, 33 µM; in the assay on HOP-92 NSCLC, above 100 µM. The TGI with SK-MEL-28 melanoma, with COLO 205 colon, with IGROV1 ovarian, in the assay with MALME-3M melanoma and with HOP-92 NSCLC was above 100 µM in each case.
With `Fc1cc(-c2nnc3n2N=C(c2ccc(Cl)cc2Cl)CS3)c(Cl)cc1Cl`, the GI50 was 40.2 µM in the assay on SK-MEL-28 melanoma; 49.5 µM in the assay on DU-145 prostate; 36.8 µM in the assay with SW-620 colon; 32.9 µM in the assay with COLO 205 colon; 50.4 µM with IGROV1 ovarian; 26.6 µM in the assay on MALME-3M melanoma. The GI50 in the assay with HOP-92 NSCLC is 54.2 µM. The TGI was above 100 µM with SK-MEL-28 melanoma; above 100 µM with DU-145 prostate; above 100 µM in the assay with SW-620 colon; above 100 µM in the assay on COLO 205 colon; above 100 µM with IGROV1 ovarian; 94.4 µM in the assay on MALME-3M melanoma. In the assay with HOP-92 NSCLC, this compound returned a TGI above 100 µM.
Turning to `CN(C)CCCC1(c2ccc(F)cc2)OCc2cc(-c3cncc4ccccc34)ccc21` (stereo not given), the GI50 with SK-MEL-28 melanoma is 1.75 µM; in the assay on DU-145 prostate, 3.4 µM; in the assay on SW-620 colon it was 3.08 µM; in the assay on COLO 205 colon, 2.07 µM; in the assay on IGROV1 ovarian it was 2.88 µM; with MALME-3M melanoma, 1.55 µM. For the same compound, the GI50 in the assay with HOP-92 NSCLC was 1.58 µM. In addition, the TGI in the assay with SK-MEL-28 melanoma was determined as 3.24 µM; with DU-145 prostate, 11.8 µM; in the assay with SW-620 colon, 11.5 µM; with COLO 205 colon it was 4.72 µM; in the assay with IGROV1 ovarian, 12.2 µM; with MALME-3M melanoma, 3.09 µM. For the same compound, the TGI in the assay with HOP-92 NSCLC worked out at 8.81 µM.
As to `c1cnc2[nH]cc(-c3csc(-c4cn(CCCN5CCCCC5)c5ccccc45)n3)c2c1`, the GI50 in the assay on DU-145 prostate is 1.74 µM; with A498 renal it was 1.83 µM; in the assay with HOP-92 NSCLC, 1.36 µM. Moreover, the concentration for total growth inhibition (TGI) came to 3.16 µM in the assay with DU-145 prostate, 3.38 µM in the assay on A498 renal and 2.88 µM in the assay on HOP-92 NSCLC.
Turning to `c1ccc(NC[Si]23OCCN(CCO2)CCO3)cc1`, the TGI in the assay on SK-MEL-28 melanoma, in the assay on SW-620 colon, in the assay with A498 renal, in the assay on COLO 205 colon, with IGROV1 ovarian and in the assay with MALME-3M melanoma was above 100 µM throughout. Moreover, the TGI with HOP-92 NSCLC was above 100 µM.
Consider `Cn1cc(CO)c2ccccc21`, for which the GI50 was 85.9 µM with SK-MEL-28 melanoma; above 100 µM with DU-145 prostate; 19.1 µM in the assay with SW-620 colon; 17.6 µM with A498 renal; 30.3 µM with COLO 205 colon; 10.9 µM in the assay on IGROV1 ovarian. Further, the GI50 in the assay with HOP-92 NSCLC is 33.9 µM. In addition, the TGI with SK-MEL-28 melanoma was above 100 µM; in the assay with DU-145 prostate, above 100 µM; in the assay with SW-620 colon, 91.1 µM; in the assay with A498 renal, 73.1 µM; in the assay on COLO 205 colon it was above 100 µM; in the assay with IGROV1 ovarian it was above 100 µM. This compound also gave a TGI in the assay with HOP-92 NSCLC above 100 µM.
Turning to `CCCn1cnc2c(SCc3ccccc3)nc(N)nc21`, the GI50 was above 100 µM in the assay on SK-MEL-28 melanoma; above 100 µM in the assay on DU-145 prostate; above 100 µM in the assay on SW-620 colon; 19.7 µM in the assay on A498 renal; above 100 µM in the assay on COLO 205 colon; above 100 µM in the assay with IGROV1 ovarian. Besides, the GI50 with MALME-3M melanoma was above 100 µM. The TGI was above 100 µM with SK-MEL-28 melanoma; above 100 µM with DU-145 prostate; above 100 µM in the assay on SW-620 colon; 75.2 µM in the assay on A498 renal; above 100 µM in the assay on COLO 205 colon; above 100 µM in the assay with IGROV1 ovarian. In addition, in the assay with MALME-3M melanoma, the TGI is above 100 µM.
Consider `C=C(CNCCc1ccc(O)cc1)[C@@H]1CC[C@]2(CO)CC[C@]3(C)[C@H](CC[C@@H]4[C@@]5(C)CCC(N)C(C)(C)[C@@H]5CC[C@]43C)[C@@H]12` (stereo not given in full), for which the GI50 in the assay with SK-MEL-28 melanoma is 1.76 µM; in the assay with DU-145 prostate, 1.63 µM; with SW-620 colon it was 0.915 µM; with A498 renal, 1.44 µM; in the assay on COLO 205 colon it was 1.64 µM; with MALME-3M melanoma it was 1.58 µM. The GI50 in the assay with HOP-92 NSCLC is 1.12 µM. Moreover, the TGI with SK-MEL-28 melanoma came to 3.28 µM; with DU-145 prostate it was 2.98 µM; in the assay with SW-620 colon, 2.27 µM; in the assay with A498 renal, 2.79 µM; in the assay on COLO 205 colon, 3.3 µM; with MALME-3M melanoma, 3.09 µM. In the assay with HOP-92 NSCLC, this compound registered a TGI of 2.49 µM.
`CC(C)(C)[Si](C)(C)OCC1OC(n2cnc3c(N)ncnc32)C(O)C1O` (stereo not given): the TGI with SK-MEL-28 melanoma, with DU-145 prostate, with SW-620 colon, in the assay on COLO 205 colon, with IGROV1 ovarian and in the assay on MALME-3M melanoma was above 100 µM each time.
Regarding `NC(N)=N/N=C/c1c(-c2ccc(Cl)c([N+](=O)[O-])c2)nc2n1CCS2`, the GI50 in the assay on SK-MEL-28 melanoma was 16.6 µM; with DU-145 prostate, 14.5 µM; with A498 renal, 18.3 µM; in the assay on COLO 205 colon it was 15.1 µM. For the same compound, the concentration for total growth inhibition (TGI) amounted to 35.5 µM in the assay with SK-MEL-28 melanoma, 28.2 µM in the assay with DU-145 prostate, 39.5 µM in the assay with A498 renal and 39.8 µM in the assay with COLO 205 colon.
Consider `O=C(Nc1ccc(Cl)cc1)Nc1ccccc1CNc1nc(Nc2ccc(OCCN3CCCC3)cc2)ncc1Cl`, for which the GI50 with SK-MEL-28 melanoma is 0.855 µM; with DU-145 prostate it was 1.22 µM; in the assay on SW-620 colon, 1.12 µM; in the assay with A498 renal it was 5.22 µM; in the assay with IGROV1 ovarian, 1.62 µM; in the assay on MALME-3M melanoma, 0.828 µM. Also, the GI50 in the assay with HOP-92 NSCLC is 0.985 µM. The TGI in the assay on SK-MEL-28 melanoma amounted to 1.58 µM; with DU-145 prostate, 2.79 µM; in the assay on SW-620 colon, 2.67 µM; with A498 renal, 12.3 µM; with IGROV1 ovarian, 5.72 µM; in the assay on MALME-3M melanoma it was 1.59 µM. In the assay with HOP-92 NSCLC, the total growth inhibition concentration (TGI) is 2.77 µM.
For `Nc1ccn([C@@H]2C(F)=C(CO)[C@@H](O)[C@H]2O)c(=O)n1`, the GI50 in the assay on SK-MEL-28 melanoma was 6.91 µM; in the assay on DU-145 prostate, 0.445 µM; in the assay on SW-620 colon, 0.546 µM; in the assay on COLO 205 colon it was 0.838 µM; in the assay on IGROV1 ovarian, 2.88 µM; in the assay on MALME-3M melanoma it was 9.57 µM. For the same compound, the TGI in the assay with SK-MEL-28 melanoma, with DU-145 prostate, in the assay with SW-620 colon, in the assay on COLO 205 colon, in the assay on IGROV1 ovarian and in the assay on MALME-3M melanoma was above 100 µM throughout.

The values above are taken from PubChem BioAssay (NCI).
